One assay concerns gl1 plants. Description: Treatments with norflurazon and chloramphenicol. Type of assay: in vivo, Arabidopsis thaliana. The procedure:
The reagent chloramphenicol (Sigma; CP) was diluted from 100 mg/ml stock solutions prepared in ethanol to 150 μg/ml, and equivalent volume of ethanol was included in the chloramphenicol-free-treated controls. For norflurazon (Sigma; Nf) treatment, Nf was diluted from 100 mM stock solutions prepared in DMSO to 3 μM, and equivalent volume of DMSO was included in the Nf-free-treated controls. The 3-week-old seedlings were treated with CP or Nf by irrigation of either 150 μg/ml CP or 3 μM Nf dissolved both in distilled water. Stomatal response to exogenous (±)-ABA was assayed at different time intervals after the application of the reagents, and the amounts of ABAR/CHLH protein were immuno-determined at the same time.
ABA contents in tissues were assayed by radioimmunoassay method as described previously (Zhang, D. P. et al., Plant physiol. 128:714-725 (2002)).

The target of assay [1] is T1, Arabidopsis ABAR/CHLH (H subunit of Mg-chelatase) (Arabidopsis thaliana, UniProt Q9FNB0).
T1 construct: 6xHis; made in house; host or cells: Pichia methanolica (Pichia Methanolica Expression kit, Invitrogen)
T1 sequence (Q9FNB0 50-1381): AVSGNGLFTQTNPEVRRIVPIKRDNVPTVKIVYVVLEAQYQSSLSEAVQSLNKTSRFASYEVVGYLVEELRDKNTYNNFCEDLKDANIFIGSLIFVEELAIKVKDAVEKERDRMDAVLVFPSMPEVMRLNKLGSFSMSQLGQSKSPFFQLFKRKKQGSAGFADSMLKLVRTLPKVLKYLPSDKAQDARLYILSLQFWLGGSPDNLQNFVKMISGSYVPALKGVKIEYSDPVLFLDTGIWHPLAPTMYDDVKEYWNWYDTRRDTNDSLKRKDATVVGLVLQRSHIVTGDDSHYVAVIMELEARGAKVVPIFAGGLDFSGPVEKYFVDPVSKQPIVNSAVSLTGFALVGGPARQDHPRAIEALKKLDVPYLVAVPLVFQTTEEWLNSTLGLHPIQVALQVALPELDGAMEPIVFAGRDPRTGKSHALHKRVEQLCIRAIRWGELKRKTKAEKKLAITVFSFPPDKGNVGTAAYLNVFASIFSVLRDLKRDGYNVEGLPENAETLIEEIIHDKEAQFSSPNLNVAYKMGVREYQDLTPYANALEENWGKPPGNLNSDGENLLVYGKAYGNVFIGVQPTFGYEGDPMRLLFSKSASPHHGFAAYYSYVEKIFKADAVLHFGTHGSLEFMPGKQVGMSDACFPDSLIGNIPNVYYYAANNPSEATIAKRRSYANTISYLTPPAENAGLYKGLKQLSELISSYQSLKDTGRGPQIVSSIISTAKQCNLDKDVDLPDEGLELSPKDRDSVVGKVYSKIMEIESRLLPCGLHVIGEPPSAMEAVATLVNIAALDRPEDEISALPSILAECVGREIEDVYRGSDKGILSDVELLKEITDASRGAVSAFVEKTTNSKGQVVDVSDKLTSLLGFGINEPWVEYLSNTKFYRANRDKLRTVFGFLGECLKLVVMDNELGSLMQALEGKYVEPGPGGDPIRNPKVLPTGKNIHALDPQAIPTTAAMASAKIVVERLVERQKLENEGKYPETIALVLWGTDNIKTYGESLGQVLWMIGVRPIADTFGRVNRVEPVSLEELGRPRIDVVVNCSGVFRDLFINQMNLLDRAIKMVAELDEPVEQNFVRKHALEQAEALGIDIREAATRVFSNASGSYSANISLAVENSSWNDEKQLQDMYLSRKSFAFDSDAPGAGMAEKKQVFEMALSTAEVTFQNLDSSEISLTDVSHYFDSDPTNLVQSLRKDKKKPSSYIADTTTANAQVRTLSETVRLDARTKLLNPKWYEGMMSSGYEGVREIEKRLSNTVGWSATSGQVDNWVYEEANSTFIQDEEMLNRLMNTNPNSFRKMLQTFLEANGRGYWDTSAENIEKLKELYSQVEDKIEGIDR
As to the kind of experiment: ABA binding assay with purified yeast-expressed ABAR/CHLH. The note with it: purified ABAR, 30 nM [3H]ABA, 1 to 1000-fold molar excess of competitor. How it is done:
Full-length ABAR/CHLH coding sequence was PCR-amplified with forward primer 5′-[…]-3′ (SEQ ID NO:30) and reverse primer 5′-[…]-3′ (SEQ ID NO:31). The recombinant ABAR/CHLH was expressed in yeast as a fusion protein with a 6×His (SEQ ID NO:32) tag by using Pichia Methanolica Expression kit (Invitrogen) and the fusion protein was affinity-purified according to manufacturer's instructions.
The ABA-binding activity of ABAR was assayed according to the previously described procedures (Zhang, D. P. et al., Plant physiol. 128:714-725 (2002)) with modifications. The binding medium (medium A) contained 50 mM Tris-HCl (pH 7.0), 2 mM MgCl2, 1 mM CaCl2, and 250 mM mannitol. The medium for extracting the Arabidopsis natural ABAR/CHLH protein (medium B) was the medium A supplemented with 2 mM 1,4-dithiothreitol (DTT), 1 mM phenylmethyl sulfonyl fluoride (PMSF), […] leupeptin, and […] pepstin A but minus 250 mM mannitol. [^3H](+)ABA (American Radiolabeled Chemicals, 2.37×10^12 Bq mmol^−1, purity 98.4%) at 30 nM, or at a step gradient of concentrations from 0 to 70 nM (when analyzing ABA binding kinetics, see FIG. 1a, d1), together with 2 μg purified yeast-expressed ABAR/CHLH protein or 50 μg proteins of the crude extracts from two-week-old Arabidopsis seedlings, was added into the medium A. The total volume for the binding assays was adjusted to 200 μl. The mixtures were incubated at 25° C. for 30 min, and then quickly placed on ice. Following the addition of 100 μl 0.5% (w/v) Dextran T70-coated charcoal (DCC) to remove the free [^3H]ABA by adsorption, the mixtures were maintained on ice for 5 min, and then centrifuged to remove DCC before the radioactivity in the supernatant was counted. The specific binding was determined by the difference between the radioactivity bound to the immuno-purified ABAR protein or crude extracts of Arabidopsis seedlings incubated only with [^3H]ABA (total binding) and radioactivity bound in the presence of 1,000-fold molar excess of unlabeled (+)-ABA (Sigma; non-specific binding. Non-specific binding in all the assays was lower than 10% of the total binding, see FIG. 1a, d1). The unlabeled ABA was added into the incubation medium at the same time with [^3H]ABA. The ABA-binding activity of the crude ABA-binding protein from Arabidopsis seedling was expressed as the number of nanomoles of [^3H]ABA specifically bound per gram of protein, and that of the immuno-purified ABAR protein as the number of moles of [^3H]ABA per mole of protein. The stereo-specificity of the ABA-binding was assayed as described previously (Zhang, D. P. et al., Plant physiol. 128:714-725 (2002)). […] The conditions of incubation were the same as described above (the incubation medium containing 30 nM [^3H]ABA), and the two ABA isomers and (+)-ABA were assayed in the concentrations ranging from 1 to 1000-fold molar excess of [^3H]ABA.

The target in assay [2] is T2, natural ABAR/CHLH protein (Arabidopsis thaliana, UniProt Q9FNB0).
T2 construct: 50 μg proteins of the crude extracts from two-week-old Arabidopsis seedlings; from tissue; host or cells: crude extracts of two-week-old Arabidopsis seedlings / leaves of gl1 (WT), RNAi line 12 and overexpressor line 1
T2 sequence (Q9FNB0 50-1381): T1 sequence (Q9FNB0 50-1381)
As to the kind of experiment: Pull-down assay with anti-ABAR serum. Type of assay: binding. The note with it: 30 nM [3H](+)ABA. How it is done: The pull down assay was done as follows to detect ABA binding to the natural ABAR/CHLH protein. Total proteins were extracted from two-week-old Arabidopsis seedlings with the medium C composed of the medium B supplemented with 250 mM mannitol. The crude extracts (3 mg total proteins) was incubated by gently shaking in the medium C (400 μl) containing 30 nM [^3H](+)ABA at 4° C. for 2 h, and the anti-ABAR^N serum (10 μg, described below) was added into the medium for a further incubation at 4° C. for 2 h, and then the medium was supplemented by 100 μl 25% (v/v) protein A-agarose (Santa Cruz) for a final incubation at 4° C. for 2 h. Following the incubation, protein A-agarose was recovered by a brief centrifugation and washed with 1 ml medium C. The pellets were resuspended in […] water and mixed with scintillation fluid before the radioactivity (d.p.m., disintegrations per minute) of the bound [^3H](+)ABA was measured.
Three independent control experiments were performed for the pull down assays. A control was done by addition of the same amounts of mouse preimmune serum instead of the antiserum to the medium of the above-described pull down assay in the extracts from the leaves of wild-type plants. […]

Assay [3] relates to inducible RNAi transgenic plants (ABAR/CHLH expression). Description: Induction of RNAi by 17beta-estradiol in inducible RNAi lines. Particulars: 10 μM 17beta-estradiol. Type of assay: in vivo, Arabidopsis thaliana. The source says:
These constructs were introduced in Agrobacterium tumefaciens GV3101 strain and transformed into plants by floral infiltration. The homozygous T3 seeds of the transgenic plants were used for analysis. […] The seeds of the gun4-1, gun5-1 and cch mutants were a generous gift from Dr. J. Chory (The Salk Institute, La Jolla, Calif.). The seeds of the mutants hy1-1 (ABRC#: CS67), hy2-1 (CS68) and chl-2 (CS3362) were obtained from the Arabidopsis Biological Resource Center (ABRC). Except for the mutants hy1-1 and hy2-1 with the ecotype Ler as background, all the other mutants were isolated from the ecotype Columbia. Plants were grown in a growth chamber at 20-21° C. on Murashige-Skoog (MS) medium at about 80 μmol photons m^−2 s^−1, or in compost soil at about 120 μmol photons m^−2 s^−1 over a 16-h photoperiod.
For the treatment of seedlings of the inducible RNAi lines with 17beta-estradiol (Sigma) to induce down-regulation of ABAR/CHLH expression, 17beta-estradiol was diluted from 10 mM stock solution prepared in dimethyl sulfoxide (DMSO) to 10 μM, and equivalent volume of DMSO was included in the 17beta-estradiol-free-treated controls. […] The amounts of ABAR/CHLH protein were also determined at the same time by immunoblotting. […] The expression of ABAR/CHLH and some ABA-responsive genes was assessed by real-time PCR.

These results are taken from patent publication US20090044291A1, “DROUGHT-RESISTANT PLANTS AND METHOD FOR PRODUCING THE PLANTS” (D-Helix, priority 2006, published 2009).

As to `CNc1cnn(-c2cccc(C(F)(F)F)c2)c(=O)c1Cl` [norflurazon], in the assay with gl1 plants (Nf-treated plants, 3 μM by irrigation), the ABA contents entry is listed as “remained unchanged”.

Regarding `CC1=CC(=O)CC(C)(C)C1(O)/C=C/C(C)=C\C(=O)O` (single isomer, unassigned; (-)) [(−)-ABA], the “displacement of [3H](+)-ABA binding” value in assay [1] is recorded as “not”.

Take `CC(C=CC1(O)C(C)=CC(=O)CC1(C)C)=CC(=O)O` (stereo not drawn) [trans-ABA]: the “displacement of [3H](+)-ABA binding” value in assay [1] is “not”.

For the compound (+)-ABA, the “displacement of [3H]ABA / stereospecificity of pulled-down ABA-binding activity” value in assay [2] is on record as “highly stereospecific”. The “displacement of [3H](+)-ABA binding” value in assay [1] was “efficient displacement”.

Consider `C[C@]12CC[C@@H]3c4ccc(O)cc4CC[C@H]3[C@@H]1CC[C@@H]2O` [17beta-estradiol], for which the “ABAR transcript and product / ABAR levels” value was “significant decline” in assay [3] and “decrease” in assay [3] (listed as 17beta-oestradiol).

For `O=C(N[C@H](CO)[C@H](O)c1ccc([N+](=O)[O-])cc1)C(Cl)Cl` [chloramphenicol], the ABA contents entry in the assay on gl1 plants (CP-treated plants, 150 μg/ml by irrigation) is “remained unchanged”. Further, the ABAR levels result in the assay with gl1 plants (after CP treatment (FIG. 9)) was “decrease”. For the same compound, the “stomatal movement response to ABA” value in the assay with gl1 plants (after CP treatment (FIG. 9), 10 μM (±)-ABA) is “ABA-insensitive”.
